Read-outs that look alike come from different tables or passages of the source.
Columns and labels:
[1] = test system: ECHCG (Echinochloa crus-galli); assay: post-emergence greenhouse test; format: in vivo; conditions: use rate 6.25 g ai/ha, read-out: observed % activity
Excerpt: (§1) For the post-emergence treatment, the test plants were first grown to a height of 3 to 20 cm, depending on the plant habit, and only then treated. Here, the herbicidal compositions were suspended or emulsified in water as distribution medium and sprayed using finely distributing nozzles.
(§2) The respective herbicides A and/or safener were formulated as 10% by weight strength suspension concentrate and introduced to the spray liquor with the amount of solvent system used for applying the active compound. Herbicide B and/or safener were used as commercially available formulations and introduced to the spray liquor with the amount of solvent system used for applying the active compound. In the examples, the solvent used was water.
(§3) The test period extended over 20 days. During this time, the plants were tended, and their response to the treatments with active compound was evaluated.
(§4) In the following experiments, the herbicidal activity for the individual herbicide compounds (solo application) and of the mixture was assessed 8 days after treatment (8 DAT) and/or 20 days after treatment (20 DAT).
(§5) The evaluation for the damage caused by the chemical compositions was carried out using a scale from 0 to 100%, compared to the untreated control plants. Here, 0 means no damage and 100 means complete destruction of the plants.

[2] = test system: CHEAL (Chenopodium album); assay: post-emergence greenhouse test; format: in vivo; conditions: for inhibition at 6.25 g/ha / inhibition at 25 g/ha / inhibition at 50 g/ha: Chenopodium album, read-out: observed % activity; for inhibition at 6.25 g/ha: use rate 6.25 g ai/ha; for inhibition at 25 g/ha: use rate 25 g ai/ha; for inhibition at 50 g/ha: use rate 50 g ai/ha
Excerpt: as §1, §2, §3, §4, §5

[3] = test system: SETVI (Setaria viridis); assay: post-emergence greenhouse test; format: in vivo; conditions: use rate 6.25 g ai/ha, read-out: observed % activity
Excerpt: as §1, §2, §3, §4, §5

[4] = test system: BRAPL (Brachiaria plantaginea); assay: post-emergence greenhouse test; format: in vivo; conditions: Urochloa plantaginea, read-out: observed % activity; for inhibition at 6.25 g/ha: use rate 6.25 g ai/ha; for inhibition at 12.5 g/ha: use rate 12.5 g ai/ha
Excerpt: as §1, §2, §3, §4, §5

[5] = test system: ERBVI; assay: post-emergence greenhouse test; format: in vivo; conditions: use rate 12.5 g ai/ha, read-out: observed % activity
Excerpt: as §1, §2, §3, §4, §5

[6] = test system: ABUTH (Abutilon theophrasti); assay: post-emergence greenhouse test; format: in vivo; conditions: use rate 6.25 g ai/ha, read-out: observed % activity
Excerpt: as §1, §2, §3, §4, §5

[7] = test system: MERAN (Mercurialis annua); assay: post-emergence greenhouse test; format: in vivo; conditions: for observed activity in % destruction: 50 g ai/ha; for inhibition at 50 g/ha: Mercurialis annua, use rate 50 g ai/ha, read-out: observed % activity
Excerpt: as §1, §2, §3, §4, §5

[8] = test system: PANDI (Panicum dichotomiflorum); assay: post-emergence greenhouse test; format: in vivo; conditions: use rate 25 g ai/ha, read-out: observed % activity
Excerpt: as §1, §2, §3, §4, §5

[9] = test system: SETFA (Setaria faberii); assay: post-emergence greenhouse test; format: in vivo; conditions: Setaria faberi, use rate 25 g ai/ha, read-out: observed % activity
Excerpt: as §1, §2, §3, §4, §5

[10] = test system: ALOMY (Alopecurus myosuroides); assay: post-emergence greenhouse test; format: in vivo; conditions: for observed activity in % destruction: 50 g ai/ha; for inhibition at 6.25 g/ha / inhibition at 25 g/ha / inhibition at 50 g/ha: Alopecurus myosuroides, read-out: observed % activity; for inhibition at 6.25 g/ha: use rate 6.25 g ai/ha; for inhibition at 25 g/ha: use rate 25 g ai/ha; for inhibition at 50 g/ha: use rate 50 g ai/ha
Excerpt: as §1, §2, §3, §4, §5

[11] = test system: AMBEL (Ambrosia artemisifolia); assay: post-emergence greenhouse test; format: in vivo; conditions: for observed activity in % destruction: 25 g ai/ha; for inhibition at 50 g/ha: Ambrosia, use rate 50 g ai/ha, read-out: observed % activity
Excerpt: as §1, §2, §3, §4, §5

[12] = test system: LOLMU (Lolium multiflorum); assay: post-emergence greenhouse test; format: in vivo; conditions: 50 g ai/ha
Excerpt: as §1, §2, §3, §4, §5

[13] = test system: COMBE (Commelina benghalensis); assay: post-emergence greenhouse test; format: in vivo; conditions: read-out: observed % activity; for inhibition at 6.25 g/ha: Table 18, use rate 6.25 g ai/ha; for inhibition at 12.5 g/ha: Table 20, use rate 12.5 g ai/ha
Excerpt: as §1, §2, §3, §4, §5

[14] = test system: ELEIN (Eleusine indica); assay: post-emergence greenhouse test; format: in vivo; conditions: use rate 6.25 g ai/ha, read-out: observed % activity
Excerpt: as §1, §2, §3, §4, §5

[15] = test system: ECHCG (Echinochloa crus-galli); assay: pre-emergence greenhouse test; format: in vivo; conditions: for inhibition at 25 g/ha: Echinochloa crus-galli, use rate 25 g ai/ha, read-out: observed % activity; for inhibition at 25 g/ha / observed activity in % destruction: pre-emergence
Excerpt: (§6) For the pre-emergence treatment, directly after sowing the active compounds, which had been suspended or emulsified in water, were applied by means of finely distributed nozzles. The containers were irrigated gently to promote germination and growth and subsequently covered with transparent plastic hoods until plant had rooted. This cover caused uniform germination of the tests plants, unless this was adversely affected by active compounds.
as §2, §3, §4, §5

[16] = test system: COMBE (Commelina benghalensis); assay: pre-emergence greenhouse test; format: in vivo; conditions: for inhibition at 12.5 g/ha: Commelina benghalensis, use rate 12.5 g ai/ha, read-out: observed % activity; for inhibition at 12.5 g/ha / observed activity in % destruction: pre-emergence
Excerpt: as §6, §2, §3, §4, §5

[17] = test system: harmful plants; conditions: known from Y. Yamaji et al. 2006; cited from earlier work
[18] = ECHCG pre-emergence 12.5 g ai/ha
[19] = COMBE pre-emergence 6.25 g ai/ha
[20] = COMBE pre-emergence 12.5 g ai/ha

Cn1nc(C(F)(F)F)c(CS(=O)(=O)C2=NOC(C)(C)C2)c1OC(F)F [pyroxasulfone, 3-[5-(difluoromethoxy)-1-methyl-3-(trifluoromethyl)pyrazol-4-ylmethylsulfonyl]-4,5-dihydro-5,5-dimethyl-1,2-oxazole]
inhibition at 6.25 g/ha ([1]; 192 h, 8 DAT): 30% | inhibition at 6.25 g/ha ([1]; 480 h, 20 DAT): 80% | observed activity in % destruction ([2]; 6.25 g ai/ha, 8 DAT): 0% | observed activity in % destruction ([2]; 6.25 g ai/ha, 20 DAT): 0% | observed activity in % destruction ([2]; 12.5 g ai/ha, 8 DAT): 20% | observed activity in % destruction ([2]; 12.5 g ai/ha, 20 DAT): 30% | observed activity in % destruction ([2]; 25 g ai/ha, 8 DAT): 35% | observed activity in % destruction ([2]; 25 g ai/ha, 20 DAT): 30% | observed activity in % destruction ([2]; 50 g ai/ha, 8 DAT): 45% | observed activity in % destruction ([2]; 50 g ai/ha, 20 DAT): 60% | inhibition at 6.25 g/ha ([2]; 192 h, 8 DAT): 0% | inhibition at 25 g/ha ([2]; 192 h, 8 DAT): 35% | inhibition at 50 g/ha ([2]; 192 h, 8 DAT): 45% | inhibition at 6.25 g/ha ([2]; 480 h, 20 DAT): 0% | inhibition at 25 g/ha ([2]; 480 h, 20 DAT): 30% | inhibition at 50 g/ha ([2]; 480 h, 20 DAT): 60% | inhibition at 6.25 g/ha ([3]; 192 h, 8 DAT): 40% | inhibition at 6.25 g/ha ([3]; 480 h, 20 DAT): 75% | inhibition at 6.25 g/ha ([4]; 192 h, 8 DAT): 20% | inhibition at 12.5 g/ha ([4]; 192 h, 8 DAT): 30% | inhibition at 6.25 g/ha ([4]; 480 h, 20 DAT): 40% | inhibition at 12.5 g/ha ([4]; 480 h, 20 DAT): 45% | inhibition at 12.5 g/ha ([5]; 192 h, 8 DAT): 40% | inhibition at 12.5 g/ha ([5]; 480 h, 20 DAT): 75% | inhibition at 6.25 g/ha ([6]; 192 h, 8 DAT): 40% | inhibition at 6.25 g/ha ([6]; 480 h, 20 DAT): 40% | observed activity in % destruction ([7]; 8 DAT): 45% | observed activity in % destruction ([7]; 20 DAT): 85% | inhibition at 50 g/ha ([7]; 192 h, 8 DAT): 45% | inhibition at 50 g/ha ([7]; 480 h, 20 DAT): 85% | inhibition at 25 g/ha ([8]; 192 h, 8 DAT): 60% | inhibition at 25 g/ha ([8]; 480 h, 20 DAT): 85% | inhibition at 25 g/ha ([9]; 192 h, 8 DAT): 55% | inhibition at 25 g/ha ([9]; 480 h, 20 DAT): 90% | observed activity in % destruction ([10]; 8 DAT): 30% | observed activity in % destruction ([10]; 20 DAT): 75% | inhibition at 6.25 g/ha ([10]; 192 h, 8 DAT): 20% | inhibition at 25 g/ha ([10]; 192 h, 8 DAT): 30% | inhibition at 50 g/ha ([10]; 192 h, 8 DAT): 30% | inhibition at 6.25 g/ha ([10]; 480 h, 20 DAT): 30% | inhibition at 25 g/ha ([10]; 480 h, 20 DAT): 55% | inhibition at 50 g/ha ([10]; 480 h, 20 DAT): 75% | observed activity in % destruction ([11]; 8 DAT): 50% | observed activity in % destruction ([11]; 20 DAT): 40% | inhibition at 50 g/ha ([11]; 192 h, 8 DAT): 50% | inhibition at 50 g/ha ([11]; 480 h, 20 DAT): 70% | observed activity in % destruction ([12]; 8 DAT): 60% | observed activity in % destruction ([12]; 20 DAT): 80% | inhibition at 6.25 g/ha ([13]; 192 h, 8 DAT): 20% | inhibition at 12.5 g/ha ([13]; 192 h, 8 DAT): 30% | inhibition at 6.25 g/ha ([13]; 480 h, 20 DAT): 20% | inhibition at 12.5 g/ha ([13]; 480 h, 20 DAT): 40% | inhibition at 6.25 g/ha ([14]; 192 h, 8 DAT): 55% | inhibition at 6.25 g/ha ([14]; 480 h, 20 DAT): 90% | observed % destruction 8 DAT [15, 18]: 70% | observed % destruction 20 DAT [15, 18]: 98% | observed % destruction 8 DAT ([15]; ECHCG pre-emergence 25 g ai/ha): 75% | observed % destruction 20 DAT ([15]; ECHCG pre-emergence 25 g ai/ha): 98% | observed % destruction 8 DAT ([15]; ECHCG pre-emergence 50 g ai/ha): 90% | observed % destruction 20 DAT ([15]; ECHCG pre-emergence 50 g ai/ha): 100% | inhibition at 25 g/ha ([15]; 192 h, 8 DAT): 75% | inhibition at 25 g/ha ([15]; 480 h, 20 DAT): 98% | observed activity in % destruction ([15]; 12.5 g ai/ha, 8 DAT): 70% | observed activity in % destruction ([15]; 12.5 g ai/ha, 20 DAT): 98% | observed activity in % destruction ([15]; 25 g ai/ha, 8 DAT): 75% | observed activity in % destruction ([15]; 25 g ai/ha, 20 DAT): 98% | observed activity in % destruction ([15]; 50 g ai/ha, 8 DAT): 90% | observed activity in % destruction ([15]; 50 g ai/ha, 20 DAT): 100% | observed % destruction 8 DAT [16, 19]: 40% | observed % destruction 20 DAT [16, 19]: 70% | observed % destruction 8 DAT [16, 20]: 75% | observed % destruction 20 DAT [16, 20]: 98% | observed % destruction 8 DAT ([16]; COMBE pre-emergence 25 g ai/ha): 95% | observed % destruction 20 DAT ([16]; COMBE pre-emergence 25 g ai/ha): 100% | inhibition at 12.5 g/ha ([16]; 192 h, 8 DAT): 75% | inhibition at 12.5 g/ha ([16]; 480 h, 20 DAT): 98% | observed activity in % destruction ([16]; 6.25 g ai/ha, 8 DAT): 40% | observed activity in % destruction ([16]; 6.25 g ai/ha, 20 DAT): 70% | observed activity in % destruction ([16]; 12.5 g ai/ha, 8 DAT): 75% | observed activity in % destruction ([16]; 12.5 g ai/ha, 20 DAT): 98% | observed activity in % destruction ([16]; 25 g ai/ha, 8 DAT): 95% | observed activity in % destruction ([16]; 25 g ai/ha, 20 DAT): 100% | post-emergence activity [17]: poor
